From the NIST ThermoML archive (doi:10.1021/je900503p)

Assays:
[1] = xn = mol fraction of the nth substance listed; settings: 101 kPa, Liquid
[2] = refractive index (Na D-line) (dimensionless); xn = mol fraction of the nth substance listed; settings: 101 kPa, Liquid
[3] = relative permittivity at zero frequency (dimensionless); xn = mol fraction of the nth substance listed; settings: 101 kPa, Liquid, Dekameter

O=C1CCCO1 [γ-butyrolactone] + CCC(C)O
Settings | mass density [kg/m3] | refractive index | relative permittivity at zero frequency
[1], 293.15 K, x1 = 0.0564 | 820.99 | – | –
[1], 293.15 K, x1 = 0.1213 | 839.11 | – | –
[1], 293.15 K, x1 = 0.2541 | 877.55 | – | –
[1], 293.15 K, x1 = 0.3003 | 891.34 | – | –
[1], 293.15 K, x1 = 0.3895 | 918.62 | – | –
[1], 293.15 K, x1 = 0.4574 | 939.95 | – | –
[1], 293.15 K, x1 = 0.5005 | 953.71 | – | –
[1], 293.15 K, x1 = 0.5876 | 982.13 | – | –
[1], 293.15 K, x1 = 0.6442 | 1001.11 | – | –
[1], 293.15 K, x1 = 0.7127 | 1024.55 | – | –
[1], 293.15 K, x1 = 0.8006 | 1055.41 | – | –
[1], 293.15 K, x1 = 0.8554 | 1075.08 | – | –
[1], 293.15 K, x1 = 0.9262 | 1101.09 | – | –
[1], 293.15 K, x1 = 0.9785 | 1120.58 | – | –
[1], 298.15 K, x1 = 0.0564 | 817.52 | – | –
[1], 298.15 K, x1 = 0.1213 | 835.59 | – | –
[1], 298.15 K, x1 = 0.2541 | 873.9 | – | –
[1], 298.15 K, x1 = 0.3003 | 887.63 | – | –
[1], 298.15 K, x1 = 0.3895 | 914.8 | – | –
[1], 298.15 K, x1 = 0.4574 | 936.03 | – | –
[1], 298.15 K, x1 = 0.5005 | 949.73 | – | –
[1], 298.15 K, x1 = 0.5876 | 978.07 | – | –
[1], 298.15 K, x1 = 0.6442 | 996.91 | – | –
[1], 298.15 K, x1 = 0.7127 | 1020.25 | – | –
[1], 298.15 K, x1 = 0.8006 | 1050.96 | – | –
[1], 298.15 K, x1 = 0.8554 | 1070.55 | – | –
[1], 298.15 K, x1 = 0.9262 | 1096.44 | – | –
[1], 298.15 K, x1 = 0.9785 | 1115.89 | – | –
[1], 303.15 K, x1 = 0.0564 | 814 | – | –
[1], 303.15 K, x1 = 0.1213 | 831.99 | – | –
[1], 303.15 K, x1 = 0.2541 | 870.15 | – | –
[1], 303.15 K, x1 = 0.3003 | 883.83 | – | –
[1], 303.15 K, x1 = 0.3895 | 910.88 | – | –
[1], 303.15 K, x1 = 0.4574 | 932.02 | – | –
[1], 303.15 K, x1 = 0.5005 | 945.67 | – | –
[1], 303.15 K, x1 = 0.5876 | 973.9 | – | –
[1], 303.15 K, x1 = 0.6442 | 992.68 | – | –
[1], 303.15 K, x1 = 0.7127 | 1015.92 | – | –
[1], 303.15 K, x1 = 0.8006 | 1046.52 | – | –
[1], 303.15 K, x1 = 0.8554 | 1066.03 | – | –
[1], 303.15 K, x1 = 0.9262 | 1091.83 | – | –
[1], 303.15 K, x1 = 0.9785 | 1111.21 | – | –
[1], 313.15 K, x1 = 0.0564 | 805.57 | – | –
[1], 313.15 K, x1 = 0.1213 | 823.45 | – | –
[1], 313.15 K, x1 = 0.2541 | 861.53 | – | –
[1], 313.15 K, x1 = 0.3003 | 875.2 | – | –
[1], 313.15 K, x1 = 0.3895 | 902.14 | – | –
[1], 313.15 K, x1 = 0.4574 | 923.19 | – | –
[1], 313.15 K, x1 = 0.5005 | 936.83 | – | –
[1], 313.15 K, x1 = 0.5876 | 964.91 | – | –
[1], 313.15 K, x1 = 0.6442 | 983.59 | – | –
[1], 313.15 K, x1 = 0.7127 | 1006.75 | – | –
[1], 313.15 K, x1 = 0.8006 | 1037.12 | – | –
[1], 313.15 K, x1 = 0.8554 | 1056.44 | – | –
[1], 313.15 K, x1 = 0.9262 | 1081.97 | – | –
[1], 313.15 K, x1 = 0.9785 | 1101.4 | – | –
[2], 293.15 K, x1 = 0.1009 | – | 1.4004 | –
[2], 293.15 K, x1 = 0.2112 | – | 1.4009 | –
[2], 293.15 K, x1 = 0.3009 | – | 1.4021 | –
[2], 293.15 K, x1 = 0.4008 | – | 1.4043 | –
[2], 293.15 K, x1 = 0.5088 | – | 1.4076 | –
[2], 293.15 K, x1 = 0.6003 | – | 1.4112 | –
[2], 293.15 K, x1 = 0.7001 | – | 1.4162 | –
[2], 293.15 K, x1 = 0.8055 | – | 1.4221 | –
[2], 293.15 K, x1 = 0.9011 | – | 1.4285 | –
[2], 298.15 K, x1 = 0.1009 | – | 1.3976 | –
[2], 298.15 K, x1 = 0.2112 | – | 1.3978 | –
[2], 298.15 K, x1 = 0.3009 | – | 1.3986 | –
[2], 298.15 K, x1 = 0.4008 | – | 1.4005 | –
[2], 298.15 K, x1 = 0.5088 | – | 1.4036 | –
[2], 298.15 K, x1 = 0.6003 | – | 1.4071 | –
[2], 298.15 K, x1 = 0.7001 | – | 1.4119 | –
[2], 298.15 K, x1 = 0.8055 | – | 1.4175 | –
[2], 298.15 K, x1 = 0.9011 | – | 1.4236 | –
[2], 303.15 K, x1 = 0.1009 | – | 1.394 | –
[2], 303.15 K, x1 = 0.2112 | – | 1.3943 | –
[2], 303.15 K, x1 = 0.3009 | – | 1.3952 | –
[2], 303.15 K, x1 = 0.4008 | – | 1.3974 | –
[2], 303.15 K, x1 = 0.5088 | – | 1.4004 | –
[2], 303.15 K, x1 = 0.6003 | – | 1.4036 | –
[2], 303.15 K, x1 = 0.7001 | – | 1.4082 | –
[2], 303.15 K, x1 = 0.8055 | – | 1.4135 | –
[2], 303.15 K, x1 = 0.9011 | – | 1.4195 | –
[2], 313.15 K, x1 = 0.1009 | – | 1.3909 | –
[2], 313.15 K, x1 = 0.2112 | – | 1.3906 | –
[2], 313.15 K, x1 = 0.3009 | – | 1.3912 | –
[2], 313.15 K, x1 = 0.4008 | – | 1.3925 | –
[2], 313.15 K, x1 = 0.5088 | – | 1.3952 | –
[2], 313.15 K, x1 = 0.6003 | – | 1.3984 | –
[2], 313.15 K, x1 = 0.7001 | – | 1.4023 | –
[2], 313.15 K, x1 = 0.8055 | – | 1.4078 | –
[2], 313.15 K, x1 = 0.9011 | – | 1.4133 | –
[3], 293.15 K, x1 = 0.1009 | – | – | 17.91
[3], 293.15 K, x1 = 0.2112 | – | – | 19.08
[3], 293.15 K, x1 = 0.3009 | – | – | 20.56
[3], 293.15 K, x1 = 0.4008 | – | – | 22.53
[3], 293.15 K, x1 = 0.5088 | – | – | 25.16
[3], 293.15 K, x1 = 0.6003 | – | – | 27.69
[3], 293.15 K, x1 = 0.7001 | – | – | 30.91
[3], 293.15 K, x1 = 0.8055 | – | – | 34.66
[3], 293.15 K, x1 = 0.9011 | – | – | 38.29
[3], 298.15 K, x1 = 0.1009 | – | – | 16.66
[3], 298.15 K, x1 = 0.2112 | – | – | 17.89
[3], 298.15 K, x1 = 0.3009 | – | – | 19.48
[3], 298.15 K, x1 = 0.4008 | – | – | 21.48
[3], 298.15 K, x1 = 0.5088 | – | – | 24.01
[3], 298.15 K, x1 = 0.6003 | – | – | 26.59
[3], 298.15 K, x1 = 0.7001 | – | – | 29.67
[3], 298.15 K, x1 = 0.8055 | – | – | 33.02
[3], 298.15 K, x1 = 0.9011 | – | – | 37.47
[3], 303.15 K, x1 = 0.1009 | – | – | 16.75
[3], 303.15 K, x1 = 0.2112 | – | – | 18.21
[3], 303.15 K, x1 = 0.3009 | – | – | 19.37
[3], 303.15 K, x1 = 0.4008 | – | – | 21.28
[3], 303.15 K, x1 = 0.5088 | – | – | 23.71
[3], 303.15 K, x1 = 0.6003 | – | – | 26.26
[3], 303.15 K, x1 = 0.7001 | – | – | 29.48
[3], 303.15 K, x1 = 0.8055 | – | – | 33.39
[3], 303.15 K, x1 = 0.9011 | – | – | 36.73
[3], 313.15 K, x1 = 0.1009 | – | – | 16.09
[3], 313.15 K, x1 = 0.2112 | – | – | 17.48
[3], 313.15 K, x1 = 0.3009 | – | – | 18.55
[3], 313.15 K, x1 = 0.4008 | – | – | 20.43
[3], 313.15 K, x1 = 0.5088 | – | – | 22.86
[3], 313.15 K, x1 = 0.6003 | – | – | 25.55
[3], 313.15 K, x1 = 0.7001 | – | – | 28.79
[3], 313.15 K, x1 = 0.8055 | – | – | 32.73
[3], 313.15 K, x1 = 0.9011 | – | – | 36.05
